In patent US20140287923A1, “METHOD FOR ENHANCING CROP YIELDS BY APPLICATION OF TREHALOSE” (Stoller Enterprises, Inc., priority 2012, published 2014):

Key:
Type in all cases: in vivo
[1] = test system: Field Corn, cultivar Asgrow 7371; assay: Foliar trehalose on field corn yield, cultivar Asgrow 7371; conditions: trehalose 100 grams per acre foliar, 4 and 5 weeks after V16 stage
From the text: Field Corn, cultivar Asgrow 7371, was twice treated foliarly before harvest with an aqueous solution of trehalose at the rate of 100 grams of trehalose per acre, at 4 weeks after the V16 stage of growth, and once again foliarly at the same rate at 5 weeks after the V16 stage of growth.

Sugar Beets = assay: Foliar trehalose on sugar beet yield and quality
From the text: Sugar Beets were foliarly treated with Trehalose at the rate of 300 grams per acre in Yuma Colo.

[2] = test system: Field corn, Cultivar Dekalb C6805; assay: Foliar trehalose on field corn yield, cultivar Dekalb C6805; conditions: for Yield of field corn (bushels per acre): control 155; for Weight of 1,000 kernels (grams): control 261
Experimental: Field corn, Cultivar Dekalb C6805, was treated foliarly with an aqueous solution of trehalose at the rate of 100 grams per acre, either at the […] stage of growth or 3 weeks before the […] stage of growth, in southern Texas. Field corn yields were increased with this cultivar from 155 bushels per acre to an unprecedented 337 bushels per acre for this locale, characterized by hot, windy climate and poor soils and high levels of pests including disease and insects. Seed weights of the corn kernels were increased.

Sugar Cane = assay: Trehalose on sugar per acre from sugar cane; conditions: 4 weeks before harvest
Experimental: Sugar Cane, grown in southern Texas was treated 4 weeks before harvest with an aqueous solution of Trehalose at the rate of 450 grams per acre, gave an extra 897 pounds of sugar from sugar cane production.

Potato, cultivar Eva = assay: Yield of Eva potato treated foliarly with trehalose 4 weeks before harvest; conditions: for pounds per graded size #4 (>10 ounces): control 0.0; for pounds per graded size #1 (0 to 4 ounces): control 0.8; for pounds per graded size #2 (>4 ounces) / pounds per graded size #3 (>6 ounces): control 6.8; for pounds Total: control 14.4
[3] = test system: Potatoes, cultivar Snowden; assay: Reducing sugar content of potato tubers after foliar trehalose, cultivar Snowden; conditions: 4 or 2 weeks before harvest, inversely proportional to the dose of trehalose
Experimental: Potatoes, cultivar Snowden in Wisconsin, were treated either 4 or 2 weeks before harvest with a foliar application of trehalose at the rate of 100 grams per acre. The potatoes were harvested and shipped to College Station, Tex. for analysis of reducing sugars.

Potatoes, cultivar Eva = assay: Reducing sugar content of potato tubers after foliar trehalose, cultivar Eva; conditions: for Reducing Sugar Content of Tubers (absorbance at 570 nm): 100 grams/acre foliar, n = 16
Experimental: Potatoes, cultivar Eva in Pennsylvania, were treated either 4 or 2 weeks before harvest with a foliar application of trehalose at the rate of 100 grams per acre. The potatoes were harvested and shipped to College Station, Texas for analysis of reducing sugars. […] (Table 4).

winter wheat = assay: Foliar trehalose on yield of winter wheat; conditions: 100 g/a Foliar, 4 weeks before harvest; control 0%; highly significant
Experimental: Wheat, grown in Ontario Canada, was treated foliarly with an aqueous solution of trehalose at the rate of 100 grams per acre, 4 weeks before harvest.

[4] = 100 grams per acre foliar at the V16 stage of growth
[5] = 100 grams per acre foliar, 3 wk prior to V16 growth stage

Compound: OC[C@H]1O[C@H](O[C@H]2O[C@H](CO)[C@@H](O)[C@H](O)[C@H]2O)[C@H](O)[C@@H](O)[C@@H]1O [Trehalose, trehalose]
- Yield increase by treatment of trehalose [1]: up to 125%
- Yield of field corn (bushels per acre) ([1]; Cultivar 7371, control 103 bu/acre): 231 bu/acre
- Weight of 1,000 kernels (grams) ([1]; Cultivar 7371, control 288 grams): 368 grams
- Percent SLM (Sugar Beets; 300 g/a Foliar, 2 weeks before harvest, control 1.85): 1.22%
- Percent Sugar (Sugar Beets; 300 g/a Foliar, 2 weeks before harvest, control 15.83%): 17.23%
- Sugar Beet yield (tons per acre) (Sugar Beets; 300 g/a Foliar, 2 weeks before harvest, control 27.79): 28.4 tons per acre
- Pounds of Sugar per acre (Sugar Beets; 300 g/a Foliar, 2 weeks before harvest, control 8797): 9770 Pounds of Sugar per acre
- Extra sugar per acre transferred to the beets (Sugar Beets; 300 grams per acre foliar): nearly half an extra ton of sugar per acre
- % SLM (Sugar Beets; 300 grams per acre, 2 weeks before harvest): decided reduction
- Seed weights of the corn kernels ([2]; 100 grams per acre foliar): increased
- Yield of field corn (bushels per acre) [2, 4]: 311 bushels per acre
- Weight of 1,000 kernels (grams) [2, 4]: 286 grams
- Yield of field corn (bushels per acre) [2, 5]: 327 bushels per acre
- Weight of 1,000 kernels (grams) [2, 5]: 294 grams
- Field corn yield ([2]; 100 grams per acre foliar, V16 or 3 weeks before V16, increased from 155): 337 bushels per acre
- increase in lb of sugar per acre from sugar cane (Sugar Cane; 450 g/a Foliar, control 0): 897 lb
- extra sugar from sugar cane production (Sugar Cane; 450 grams per acre): 897 pounds
- Potato yield (Potato, cultivar Eva; 100 grams per acre foliar): increased yields
- pounds per graded size #4 (>10 ounces) (Potato, cultivar Eva; Trehalose 25 g foliar): 0.0 pounds
- pounds per graded size #1 (0 to 4 ounces) (Potato, cultivar Eva; Trehalose 25 g foliar): 1.1 pounds
- pounds per graded size #2 (>4 ounces) (Potato, cultivar Eva; Trehalose 25 g foliar): 7.2 pounds
- pounds per graded size #3 (>6 ounces) (Potato, cultivar Eva; Trehalose 25 g foliar): 8.6 pounds
- pounds Total (Potato, cultivar Eva; Trehalose 25 g foliar): 16.9 pounds
- pounds per graded size #4 (>10 ounces) (Potato, cultivar Eva; Trehalose 50 g foliar): 0.0 pounds
- pounds per graded size #1 (0 to 4 ounces) (Potato, cultivar Eva; Trehalose 50 g foliar): 0.9 pounds
- pounds per graded size #2 (>4 ounces) (Potato, cultivar Eva; Trehalose 50 g foliar): 7.0 pounds
- pounds per graded size #3 (>6 ounces) (Potato, cultivar Eva; Trehalose 50 g foliar): 8.3 pounds
- pounds Total (Potato, cultivar Eva; Trehalose 50 g foliar): 16.2 pounds
- pounds per graded size #4 (>10 ounces) (Potato, cultivar Eva; Trehalose 100 g foliar): 0.4 pounds
- pounds per graded size #1 (0 to 4 ounces) (Potato, cultivar Eva; Trehalose 100 g foliar): 0.8 pounds
- pounds per graded size #2 (>4 ounces) (Potato, cultivar Eva; Trehalose 100 g foliar): 7.4 pounds
- pounds per graded size #3 (>6 ounces) (Potato, cultivar Eva; Trehalose 100 g foliar): 8.4 pounds
- pounds Total (Potato, cultivar Eva; Trehalose 100 g foliar): 17.0 pounds
- Reducing sugar content of potato tubers [3]: decrease in reducing sugar content
- Reducing sugars in the potato tubers (Potatoes, cultivar Eva; 100 grams per acre foliar, 4 weeks before harvest): decreased
- Reducing Sugar Content of Tubers (absorbance at 570 nm) (Potatoes, cultivar Eva; 2 weeks before Harvest, control 0.200 ± 0.08): 0.211 ± 0.12 absorbance at 570 nm
- Reducing Sugar Content of Tubers (absorbance at 570 nm) (Potatoes, cultivar Eva; 4 weeks before Harvest, control 0.217 ± 0.15): 0.125 ± 0.03 absorbance at 570 nm
- increase in yield of winter wheat (winter wheat): 9.5%, highly significant
